Common to all, as to type: cell-based
Common to all, as to details: incubated 18 hours, read-out: inhibitory activity against different cancer cells (IC50)

One test has as its system HL-60. Nature of the test: MTT assay, HL-60 acute leukemia cell lines. On the procedure:
(§1) A variety of cancer cells are suspended to 2×10^5/mL, and then added into 24-hole Round-bottomed tissue culture plate. After that micheliolide and its derivatives are added, herein a test with one density occupies 5 holes. The resulting suspension are incubated (under 37° C., 5% CO2) for 18 hours to allow the compounds to take effect. A absorbance (A) value is measured by using the method of MTT assay and an enzyme-linked detector under 570 nm wavelength, and then the inhibitory activity of the compounds is concluded.
(§2) In Table 1, HL-60, K562, MCF-7, CNE-1, CNE-2, SW620, A549, HepG2, Ec9706, SGC7901, SW1116, A498, ASPC-1, HT-29, HeLa, GL15, B16F1, T24, SKOV3, SW579, PC-3, represents acute leukemia cell lines, Chronic leukemia cell lines, Breast cancer cell lines, High differentiation nasopharyngeal carcinoma cell line, Poorly differentiated nasopharyngeal carcinoma cell lines, Colorectal cancer cell line, Lung cancer cell lines, Hepatocellular carcinoma cell lines, Esophageal cancer cell line, Gastric cancer cell line, Colon cancer cell line, Renal cell carcinoma cell line, Pancreatic cancer cell line, Colon cancer cell lines, uterine cervical cancer cell lines, Horny man neuroblastoma cell lines, Melanoma cell line, human bladder cancer cell line, ovarian cancer cell lines, thyroid cancer cells, prostate cancer cell lines, respectively.

Another test relates to K562. Nature of the test: MTT assay, K562 chronic leukemia cell lines. On the procedure: as §1, §2
The next test deals with MCF-7. Nature of the test: MTT assay, MCF-7 breast cancer cell lines. As for the experimental part: as §1, §2
The next test concerns CNE-1. As to the kind of experiment: MTT assay, CNE-1 high differentiation nasopharyngeal carcinoma cell line. On the procedure:
as §1, §2

Another test relates to CNE-2. Nature of the test: MTT assay, CNE-2 poorly differentiated nasopharyngeal carcinoma cell lines. As for the experimental part:
as §1, §2

A further test relates to SW620. As to the kind of experiment: MTT assay, SW620 colorectal cancer cell line. On the procedure:
as §1, §2

The subject of a further test is A549. As to the kind of experiment: MTT assay, A549 lung cancer cell lines. As for the experimental part:
as §1, §2

For another test, the system named is HepG-2. Nature of the test: MTT assay, HepG-2 hepatocellular carcinoma cell lines. On the procedure: as §1, §2
Another test relates to Ec9706. As to the kind of experiment: MTT assay, Ec9706 esophageal cancer cell line. As for the experimental part: as §1, §2
The subject of the next test is SGC7901. As to the kind of experiment: MTT assay, SGC7901 gastric cancer cell line. On the procedure:
as §1, §2

Another test has as its system SW1116. Nature of the test: MTT assay, SW1116 colon cancer cell line. As for the experimental part: as §1, §2
The next test concerns A498. As to the kind of experiment: MTT assay, A498 renal cell carcinoma cell line. On the procedure: as §1, §2
In the next test the test system is ASPC-1. Nature of the test: MTT assay, ASPC-1 pancreatic cancer cell line. On the procedure: as §1, §2
Another test deals with HT-29. Nature of the test: MTT assay, HT-29 colon cancer cell lines. As for the experimental part:
as §1, §2

In another test the test system is HeLa. As to the kind of experiment: MTT assay, HeLa uterine cervical cancer cell lines. On the procedure: as §1, §2
Another test has as its system GL15. Nature of the test: MTT assay, GL15 neuroblastoma cell lines. As for the experimental part:
as §1, §2

A further test deals with B16F1. As to the kind of experiment: MTT assay, B16F1 melanoma cell line. As for the experimental part: as §1, §2
The subject of a further test is T24. As to the kind of experiment: MTT assay, T24 human bladder cancer cell line. On the procedure: as §1, §2
Another test has as its system SKOV3. As to the kind of experiment: MTT assay, SKOV3 ovarian cancer cell lines. As for the experimental part:
as §1, §2

Another test deals with SW579. As to the kind of experiment: MTT assay, SW579 thyroid cancer cells. On the procedure:
as §1, §2

The next test relates to PC-3. As to the kind of experiment: MTT assay, PC-3 prostate cancer cell lines. On the procedure:
as §1, §2

The structures appear in SMILES notation. Counter-ions that a name gives are not always drawn. Like-named read-outs stand apart in the source and are kept apart here.

Turning to `CC1=C2CC[C@@](C)(O)[C@@H]2[C@H]2OC(=O)[C@@H](CN(C)C)[C@@H]2CC1` [Compound II, 11βH,13-Dihydro, 13-dimethylaminomicheliolide], the IC50 in the test with HL-60 amounted to 2.4 nM; in the test on K562 it was 4.2 nM; in the test with MCF-7, 4.6 nM; in the test on CNE-1, 11.2 nM; in the test on CNE-2 (Homo sapiens, CNE-2, 18 h), 16.5 nM; in the test with SW620 it was 5.8 nM. Besides, the IC50 was 7.2 nM in the test on A549; 4.5 nM with HepG-2; 9.2 nM in the test on Ec9706 (Homo sapiens, EC9706, 18 h); 14.6 nM in the test on SGC7901 (Homo sapiens, SGC-7901, 18 h); 11.5 nM in the test with SW1116; 12.4 nM in the test on A498 (Homo sapiens, A498, 18 h). For the same compound, the IC50 in the test with ASPC-1 came out at 3.9 nM; with HT-29 it was 4.8 nM; in the test on HeLa it was 9.4 nM; in the test on GL15 it was 12.6 nM; in the test on B16F1, 3.4 nM; in the test with T24 (Homo sapiens, T-24, 18 h) it was 14.2 nM. Besides, the IC50 was determined as 5.9 nM in the test with SKOV3; 17.3 nM with SW579 (SW579, 18 h); 8.7 nM in the test on PC-3.
Consider `C=C1C(=O)O[C@H]2[C@H]1CC[C@]1(C)O[C@@]13CC[C@@](C)(O)[C@H]23` [Compound IV, 1,10-Epoxymicheliolide], for which the IC50 was determined as 5.8 nM with HL-60 (Homo sapiens, HL-60, 18 h); 9.7 nM with K562 (Homo sapiens, K562, 18 h); 8.9 nM with MCF-7 (Homo sapiens, MCF7, 18 h); 6.7 nM in the test with CNE-1 (18 h); 5.6 nM with CNE-2 (Homo sapiens, CNE-2, 18 h); 3.8 nM in the test on SW620 (Homo sapiens, SW-620, 18 h). Further, the IC50 with A549 (Homo sapiens, A549, 18 h) is 5.7 nM; with HepG-2 (Homo sapiens, HepG2, 18 h), 7.4 nM; in the test with Ec9706 (Homo sapiens, EC9706, 18 h), 6.6 nM; with SGC7901 (Homo sapiens, SGC-7901, 18 h) it was 13.4 nM; in the test with SW1116 (Homo sapiens, SW 1116, 18 h) it was 11.7 nM; with A498 (Homo sapiens, A498, 18 h) it was 4.3 nM. The IC50 is 26.4 nM with ASPC-1 (Homo sapiens, ASPC1, 18 h); 9.8 nM with HT-29 (Homo sapiens, HT-29, 18 h); 9.7 nM in the test with HeLa (Homo sapiens, 18 h); 21.5 nM in the test on GL15 (Neuroblastoma cell, 18 h); 5.2 nM with B16F1 (Mus musculus, B16-F1, 18 h); 7.9 nM in the test with T24 (Homo sapiens, T-24, 18 h). The IC50 in the test with SKOV3 (Homo sapiens, SK-OV-3, 18 h) is 10.4 nM; in the test with SW579 (SW579, 18 h), 12.4 nM; with PC-3 (Homo sapiens, PC-3, 18 h), 17.2 nM.
As to `C=C1C(=O)O[C@H]2[C@H]1CCC(C)=C1CC[C@@](C)(OC(=O)CC)[C@@H]12` [Compound III, 4-propionylmicheliolide], the IC50 in the test on HL-60 (Homo sapiens, HL-60, 18 h) was 4.5 nM; in the test with K562 (Homo sapiens, K562, 18 h) it was 6.7 nM; in the test on MCF-7 (Homo sapiens, MCF7, 18 h), 3.4 nM; in the test with CNE-1 (18 h), 5.9 nM; with CNE-2 (Homo sapiens, CNE-2, 18 h) it was 12.4 nM; in the test with SW620 (Homo sapiens, SW-620, 18 h) it was 5.6 nM. The IC50 was found to be 7.7 nM with A549 (Homo sapiens, A549, 18 h); 15.4 nM in the test on HepG-2 (Homo sapiens, HepG2, 18 h); 7.6 nM in the test on Ec9706 (Homo sapiens, EC9706, 18 h); 14.7 nM with SGC7901 (Homo sapiens, SGC-7901, 18 h); 21.5 nM in the test with SW1116 (Homo sapiens, SW 1116, 18 h); 5.3 nM in the test with A498 (Homo sapiens, A498, 18 h). Moreover, the IC50 in the test with ASPC-1 (Homo sapiens, ASPC1, 18 h) came out at 15.1 nM; with HT-29 (Homo sapiens, HT-29, 18 h), 9.8 nM; in the test with HeLa (Homo sapiens, 18 h) it was 17.3 nM; with GL15 (Neuroblastoma cell, 18 h) it was 14.3 nM; in the test on B16F1 (Mus musculus, B16-F1, 18 h) it was 13.2 nM; with T24 (Homo sapiens, T-24, 18 h) it was 13.6 nM. Also, the IC50 in the test on SKOV3 (Homo sapiens, SK-OV-3, 18 h) is 9.4 nM; with SW579 (SW579, 18 h) it was 22.5 nM; in the test on PC-3 (Homo sapiens, PC-3, 18 h), 11.4 nM.
As for `CC1=C2CC[C@@](C)(O)[C@@H]2[C@H]2OC(=O)[C@@H](CN(C)C)[C@@H]2CC1` [Compound V, 11βH,13-Dihydro, 13-dimethylaminomicheliolide hydrochloride], the IC50 amounted to 11.5 nM in the test on HL-60 (hydrochloride); 21.4 nM in the test with K562 (hydrochloride); 26.8 nM in the test on MCF-7 (hydrochloride); 22.5 nM in the test on CNE-1 (hydrochloride); 16.9 nM in the test on CNE-2 (hydrochloride); 13.5 nM with SW620 (hydrochloride). Further, the IC50 in the test on A549 (hydrochloride) came to 18.1 nM; in the test with HepG-2 (hydrochloride), 27.9 nM; in the test on Ec9706 (hydrochloride), 15.7 nM; in the test on SGC7901 (hydrochloride), 24.9 nM; with SW1116 (hydrochloride), 31.2 nM; with A498 (hydrochloride), 16.3 nM. Further, the IC50 in the test with ASPC-1 (hydrochloride) was 33.6 nM; in the test on HT-29 (hydrochloride) it was 19.2 nM; with HeLa (hydrochloride), 33.4 nM; in the test on GL15 (hydrochloride), 25.8 nM; in the test with B16F1 (hydrochloride), 18.6 nM; in the test on T24 (hydrochloride), 22.5 nM. Further, the IC50 stood at 15.4 nM with SKOV3 (hydrochloride), 32.6 nM in the test on SW579 (hydrochloride) and 23.5 nM in the test on PC-3 (hydrochloride).

Values taken from US9255078B2, “Micheliolide derivatives, medicinal composition, producing method and usage thereof” (ACCENDATECH, priority 2010, dated 2016).
